Data published in article PMC8261488, “Contraceptive progestins with androgenic properties stimulate breast epithelial cell proliferation” (EMBO Molecular Medicine, 2021).

Columns and labels:
AR [1] = test system: AR; design: method as in earlier work; settings: various assays, ref Fuhrmann et al, 1995, Muhn et al, Bouchard, 2005, Mishell, 2008, Schneider et al, 2009, Africander et al, 2011, Louw‐du Toit et al, 2017; cited from earlier work
[2] = test system: endogenous hormone levels in mice; test: Endogenous steroid hormone plasma levels in treated host mice by LC-MS; type: in vivo, mouse; settings: xenografted NSG females with pellets
Text: Next, we assessed whether progesterone and progestins differentially affected endogenous hormone levels in mice. Plasma 17‐β‐estradiol levels were not affected by any of the treatments (Fig 4H). […] Plasma testosterone levels were not altered by any treatment with the exception of DSP, which decreased them (Fig 4H). Thus, prolonged exposures to progestins differentially affect endogenous progesterone plasma levels and DSP decreases testosterone plasma levels in host mice.

Wnt4 = Wnt4 transcript levels by RT-PCR in mouse mammary organoids stimulated ex vivo; type: cell-based; settings: for Wnt4 transcript levels over vehicle-treated control: BalbC females, 6 h of stimulation
Experimental: (§1) Next, we stimulated mouse mammary organoids derived from several BalbC females with R5020 or different progestins (Fig 1A). […] No significant change in Rankl and Wnt4 transcript levels was detected during the first 2 h (Appendix Fig S1D). By 6 h of R5020 stimulation, Rankl and Wnt4 transcript levels increased 22.4 and 5.8‐fold over the vehicle‐treated control, respectively.
(§2) Animal experiments were performed in accordance with protocol approved by the Service de la Consommation et des Affaires vétérinaires of Canton de Vaud (VD 1865.3, VD 1865.4). NOD. Cg‐Prkdc^scid Il2rg^tm1Wjl/SzJ mice (Charles River), BalbC, and C57Bl6 breeders were purchased from Jackson Laboratories. Mammary glands were isolated from 18‐ to 35‐week‐old mice, lymph nodes removed, minced with surgical blades, and digested in DMEM/F12, 1% penicillin/streptomycin B with collagenase A 0.25 mg/ml (Roche). […] Fat was removed, and pellet containing organoids washed with phosphate‐buffered saline (PBS), resuspended 5 min in 3 ml red cell blood lysis buffer and washed twice with PBS.
(§3) Human breast microstructures and mouse organoids were homogenized in Trizol (Invitrogen). Aqueous phase containing RNA was chloroform extracted and processed with miRNeasy extraction kit (Qiagen). cDNA was synthesized using random p(dN)6 primers (Roche) and MMLV reverse transcriptase (Invitrogen). SYBR Green PCR Core Reagent System (Qiagen) was used for semi‐quantitative real time (RT‐PCR) using the following primers.

AR [3] = test: Percentage of AR+ cells in xenografted HBECs by co-IF for AR and hECAD; type: in vivo, human; settings: 21 days pellets, HBECs from 11 different patients
Text: (§4) Next, we sought for a readout of in vivo cell proliferation different from radiance. […] Given that MKI67 expression could replace the luciferase measurements as a readout, we used a modified experimental setup for a second round of experiments. We derived HBECs from viably frozen mammoplasty samples (Appendix Table S3) and engrafted them to different mammary glands of NSG females without viral infection. Four months later, the 24 recipient females, each engrafted with 5 different mammoplasties received pellets containing either vehicle, progesterone, or 1 of 6 progestins for 21 days. At sacrifice, xenografted glands were histologically sectioned and cell proliferation was quantified using co‐IF with anti‐MKI67 and anti‐hECAD antibodies. For one of the mammoplasties, we were able to obtain measurements for all experimental conditions (Fig 5I). […] For the remaining mammoplasties, between 3 and 8 different experimental conditions were successfully quantified (Appendix Table S4). […] CPA (P < 0.0001) decreased proliferation, whereas CMA and DSP had no effect (Fig 5K). As AR signaling increases AR protein levels, we performed co‐IF for AR and hECAD as another means to assess AR signaling activity.
(§5) Tissues were fixed for 2 h at room temperature in 4% paraformaldehyde and paraffin‐embedded. Dewaxed and rehydrated paraffin sections were pretreated in 10 mM Na citrate (pH 6.0) at 95° for 20 min. Blocking was performed with 1% BSA for 60 min. Primary antibodies used were as follows: Ki67 (rabbit α‐Ki67, clone Sp6, Spring Amsbio, dilution 1:200), ER (rabbit α‐ER, clone Sp1, Zytomed RTU), PR (rabbit α‐PR, clone 1E2, Ventana RTU), AR (rabbit α‐AR, clone SP107, Thermo Fisher, diluted 1:200), CK7 (rabbit α‐CK7, clone Sp52, Abcam, diluted 1:500), CK19 (mouse KS19.2 (Z105.6), American Research Products Inc. (diluted 1:50), and mouse α‐ECAD (clone G‐10, sc‐8426, diluted 1:100). For IHC, chromogenic revelation was performed with ChromoMap DAB kit (Roche Diagnostics, Switzerland) and sections were counterstained with Mayer’s hematoxylin. For fluorescence microscopy, nuclei were counterstained with DAPI (Sigma). IHC for ER, PR, and AR was performed on Discovery Ventana ULTRA (44). IHC images were acquired on Leica DM 2000 with Leica DFC450 C camera. IF images were acquired on Zeiss LSM700 confocal microscope. Slides were scanned with Olympus VS120‐L100 slide scanner with 20×/0.75 objective and Pike F505 C Color camera. Images were loaded into QuPath using the BioFormats extension (Bankhead et al, 2017).

HBECs [4] = test: In vivo growth of intraductal HBEC xenografts measured by radiance; settings: 60 days of treatment, subcutaneous pellets
Text: To compare the effects of progesterone and different progestins on HBECs in vivo, we infected single cell suspensions obtained from fresh reduction mammoplasty specimens with GFP‐luciferase2‐expressing lentiviruses. The infected cell mixture was grafted intraductally to up to 5 glands of as many recipients as possible. The engraftment and growth of the xenografted cells were monitored weekly by in vivo imaging. When radiance reached > 10E07 on average per mammary gland, 60‐day‐release pellets were implanted subcutaneously, usually within 3–10 weeks after cell injection. At sacrifice, blood was collected and plasma levels of the administered compounds as well as endogenous steroid hormones were determined by liquid chromatography‐mass spectrometry (LC‐MS) (Laszlo et al, 2019).
Next, the in vivo growth of HBEC xenografts stimulated with progesterone or different progestins was analyzed. […] In addition, the fold change radiance of treated versus untreated samples at endpoint was calculated (Fig 5A–C).
Mice were anesthetized by intraperitoneal injection with 10 mg/kg xylazine and 90 mg/kg ketamine (Graeub) and injected intraductally with 10 μl cell suspension per gland. Bioluminescence imaging was performed as described (Sflomos et al, 2016). After 3–10 weeks, when bioluminescence from individual glands reached 10^7 total flux (p/s/cm2/sr), animals were assigned to different treatment groups and hormone pellets implanted subcutaneously. Enzalutamide (Selleckchem, Catalog No. S1250) dissolved in 15% DMSO in PEG300 was injected intraperitoneally 3 times/week at 30 mg/kg.
Pellets were prepared by mixing the required amount of part A, MP3745/E81949 and part B, MP3744/E81950 of low consistency silicon elastomer (MED‐4011) and hormone powder to homogeneity. Mix was transferred to a syringe and incubated at 37°C overnight. The silicon‐hormone mass was removed from the syringe and cut to pieces, as described (Duss et al, 2007). The original protocol was adapted for different doses as described below.

Rankl = Rankl transcript levels by RT-PCR in mouse mammary organoids stimulated ex vivo; type: cell-based; settings: for Rankl transcript levels over vehicle-treated control: BalbC females, 6 h of stimulation
Experimental: as §1, §2, §3

HBECs [5] = test: MKI67/Ki67 expression in xenografted HBECs; type: in vivo, human; settings: 21 days pellets; for cell proliferation (KI67 and hECAD double+ cells), overall analysis: HBECs from 11 different patients; for cell proliferation (KI67 and hECAD double+ cells): one mammoplasty (M310)
Text: as §4, §5

[6] = BalbC-derived organoids, 24 h of stimulation

| Compound | androgenic / anti-androgenic activity (AR [1]) | endogenous progesterone plasma levels (estrous cycle-related variation) [2] | plasma testosterone levels [2] | Wnt4 transcript levels over vehicle-treated control (Wnt4) | Wnt4 transcript induction (Wnt4; [6]) | Wnt4 transcript induction (Wnt4; C57Bl/6 mice, 6 h, 20 nM) | percentage of AR+ cells (AR index) (AR [3]) | growth (course of radiance) of engrafted HBECs versus control (HBECs [4]) | relative radiance at endpoint over control (FC) (HBECs [4]) [fold] | Rankl transcript levels over vehicle-treated control (Rankl) | Rankl transcript induction (Rankl; [6]) | Rankl transcript induction (Rankl; C57Bl/6 mice, 6 h, 20 nM) | cell proliferation (KI67 and hECAD double+ cells), overall analysis (HBECs [5]) | cell proliferation (KI67 and hECAD double+ cells) (HBECs [5]) |
| --- | --- | --- | --- | --- | --- | --- | --- | --- | --- | --- | --- | --- | --- | --- |
| C[C@]12CCC(=O)C=C1[C@@H]1C[C@@H]1[C@H]1[C@@H]3[C@@H]4C[C@@H]4[C@@]4(CCC(=O)O4)[C@@]3(C)CC[C@@H]12 [DSP, drospirenone] | anti‐androgenic activity | suppressed | decreased | did not alter Wnt4 transcript levels | no effect | did not alter Wnt4 transcript levels | decreased | failed to affect | 1.4 | failed to affect Rankl transcript levels at all | no effect | failed to increase Rankl transcript levels | no effect | no effect |
| CC(=O)O[C@]1(C(C)=O)CC[C@H]2[C@@H]3C=C(Cl)C4=CC(=O)CC[C@]4(C)[C@H]3CC[C@@]21C [CMA, chlormadinone acetate] | anti‐androgenic activity | tendency toward higher average level of progesterone | – | did not alter Wnt4 transcript levels | no effect | did not alter Wnt4 transcript levels | no effect | Neither CMA nor CPA had any effect on the growth | 0.7 | failed to affect Rankl transcript levels at all | no effect | failed to increase Rankl transcript levels | no effect | no effect |
| CC(=O)O[C@]1(C(C)=O)CC[C@H]2[C@@H]3C=C(Cl)C4=CC(=O)[C@@H]5C[C@@H]5[C@]4(C)[C@H]3CC[C@@]21C [CPA, cyprotherone acetate] | anti‐androgenic activity | did not affect | – | did not alter Wnt4 transcript levels | no effect | 2 fold | decreased | Neither CMA nor CPA had any effect on the growth | 0.7 | failed to affect Rankl transcript levels at all | no effect | failed to increase Rankl transcript levels | decreased | decreased |
